Test system: colon of patients scheduled for colonoscopy
Test: Quality of colon cleaning assessed by Boston Scale at colonoscopy
Assay type: in vivo
Conditions: within the claimed regimen, result in words
Experimental: A prospective, open-label study involving four patients scheduled for their regular colonoscopy exam was conducted (Canadian Phase Onward Inc., Toronto, Ontario. CA). […] In addition to the standard instructions not to eat food and to drink only clear liquids, the selected patients were instructed to do the following on the day before the colonoscopy was to be performed: 1. at 10:00 AM orally taking three bisacodyl pills (Dulcolax®, Boehringer Ingelheim, Ingelheim am Rhein, Germany) with water (chewing or crushing the pills was prohibited); 2. at 3:00 PM dissolving the contents of a first sachet containing sodium picosulfate/magnesium oxide/citric acid combination ([…]®, Recordati S.p.A, Milan, Italy) with cold water and ingesting the solution after carefully stirring the solution to insure that the sodium picosulfate/magnesium oxide/citric acid combination was dissolved completely; […] […] Upon arrival at the clinic on the day of the colonoscopy, the patient's weight was recorded and blood pressure was taken and recorded and an out-patient colonoscopy was performed on each patient (North York Endoscopy Centre Inc., Toronto, Ontario, CA). The quality of the colon cleaning was assessed using the Boston Scale which is a well-established way of identifying the degree of colon cleanliness.

CC(=O)Oc1ccc(C(c2ccc(OC(C)=O)cc2)c2ccccn2)cc1 [bisacodyl, ρ,ρ-diacetoxy-diphenyl-2-pyridylmethane] was tested, and the “observed cleansing effect of the regimen component” value was “initial expulsion of the bulk of the fecal matter”.

Reference: US20220143079A1, “ORAL ADMINISTRATION OF SODIUM CHLORIDE TO PREVENT COMPLICATIONS ASSOCIATED WITH BOWEL CLEANSING WITH STIMULANT LAXATIVES” (SEAFORD PHARMACEUTICALS INC., priority 2019, published 2022)
